Source: US11186606B2, “Compositions and methods of modulating the immune response by activating alpha protein kinase 1” (Shanghai Yao Yuan Biotechnology Co., Ltd., priority 2017, dated 2021)

Key:
CT26 cells = experiment: CT26 tumor xenograft model, tumor volume; format: in vivo, BALB/c mice
Description: We used a CT26 tumor xenograft model to test the anti-cancer activity of H1b-ADP. Tumor cells (2×10^5 per 100 uL CT26 cells) were inoculated subcutaneously into the right flank of BALB/c mice. At day 6, mice whose tumors had reached 3-5 mm in diameter were randomized and grouped into three groups (n=8 each group), control, HMP-1bP (580 ug), and H1b-ADP (1.2 ug). Injections were performed using a total volume of 20 uL at days 6, 8, 10, 12, and 14 post inoculation. Tumor volumes were calculated every 2 days from caliper measurements of tumor dimension using the formula (L×W^2)/2, where L is the longer measurement.
To test whether H1b-ADP could augment an anti-tumor response by a checkpoint inhibitor, we tested the effects of co-administration with an anti-PD1 antibody. Tumor cells (2×10^5 per 100 μL CT26 cells) were inoculated subcutaneously into the left and right flanks of BALB/c mice. At day 7, mice whose tumors had reached 5 mm in diameter were randomized and grouped (n=8 each group) into the following four groups: anti-PD1 antibody; rat IgG; H1b-ADP+rat IgG; H1b-ADP+anti-PD1 antibody. We utilized RMP1-14 as the anti-PD1 antibody (10 mg/kg) and a rat IgG 2a (2A3) as the control IgG. Each of the anti-PD-1 antibody and the control IgG was administered intraperitoneally in a 200 μL volume on days 6, 10, 12, and 17 post-inoculation. H1b-ADP (6.2 μg) was intratumorally injected in a 20 μL volume at day 6, 8, 10, 12, and 15. Tumor volumes were calculated every 2 days from caliper measurements of tumor dimensions using the formula (L×W^2)/2, where L is the longer measurement. The results are shown in FIG. 13A for injected tumors and FIG. 13B for distant tumors. […]
The experiment was carried out as combo experiments of anti-PD1 except for the following variations. At day 6, mice whose tumors had reached 5 mm in diameter were randomized and grouped into the following four groups: c-di-AM(PS)2; PBS; H1b-ADP; H1b-ADP+c-di-AM(PS)2. We utilized c-di-AM(PS)2 as the STING agonist. Each of the c-di-AM(PS)2 (1 μg) and H1b-ADP (6.2 μg) was administered intratumorally in a 20 μL volume on days 6, 7, and 9 post-inoculation.
The experiment was carried out as combo experiments of anti-PD-1 except for the following variations. At day 6, mice whose tumors had reached 5 mm in diameter were randomized and grouped into the following four groups: anti-CD4 antibody (GK1.5 clone, BE0003-1, BioXcell); rat IgG; H1b-ADP+rat IgG; H1b-ADP+anti-CD4 antibody. Each of the anti-CD4 antibody (200 μg) and the control IgG (200 μg) was administered intraperitoneally in a 200 μL volume on days 3, 4, 8 post-inoculation. H1b-ADP (6.2 μg) was administered intratumorally in a 20 μL volume on days 6, 8, 10, 12, 14 post-inoculation.
The experiment was carried out as combo experiments of anti-PD-1 except for the following variations. At day 6, mice whose tumors had reached 5 mm in diameter were randomized and grouped into the following four groups: Resquimod; PBS; H1b-ADP; H1b-ADP+Resquimod. Resquimod (10 μg) and H1b-ADP (6.2 μg) were administered intratumorally in a 20 μL volume on days 6, 8, 11 post-inoculation.
We used a CT26 tumor xenograft model to test the anti-cancer activity of H1b-ADP derivative Compounds 1 and 2. Tumor cells (2×10^5 per 100 uL CT26 cells) were inoculated subcutaneously into the right flank of BALB/c mice. At day 7, mice whose tumors had reached 3-5 mm in diameter were randomized and grouped into three groups (n=9 each group), control, Compound 1 (50 nmol), and Compound 2 (50 nmol). Injections were performed using a total volume of 20 uL at days 7, 9, and 11 post inoculation. Tumor volumes were calculated every 2 days from caliper measurements of tumor dimension using the formula (L×W^2)/2, where L is the longer measurement.

ALPK1 [1] = target: T1, ALPK1 (Homo sapiens, UniProt Q96QP1); experiment: IL-8 and TNFα mRNA expression in HEK293 cells with control or ALPK1-directed siRNA; format: cell-based; design: ALPK1-directed small interfering RNA (siRNA) to silence ALPK1 expression in HEK293 cells; endogenous in cells; host or cells: HEK293
T1 sequence (Q96QP1 whole entry): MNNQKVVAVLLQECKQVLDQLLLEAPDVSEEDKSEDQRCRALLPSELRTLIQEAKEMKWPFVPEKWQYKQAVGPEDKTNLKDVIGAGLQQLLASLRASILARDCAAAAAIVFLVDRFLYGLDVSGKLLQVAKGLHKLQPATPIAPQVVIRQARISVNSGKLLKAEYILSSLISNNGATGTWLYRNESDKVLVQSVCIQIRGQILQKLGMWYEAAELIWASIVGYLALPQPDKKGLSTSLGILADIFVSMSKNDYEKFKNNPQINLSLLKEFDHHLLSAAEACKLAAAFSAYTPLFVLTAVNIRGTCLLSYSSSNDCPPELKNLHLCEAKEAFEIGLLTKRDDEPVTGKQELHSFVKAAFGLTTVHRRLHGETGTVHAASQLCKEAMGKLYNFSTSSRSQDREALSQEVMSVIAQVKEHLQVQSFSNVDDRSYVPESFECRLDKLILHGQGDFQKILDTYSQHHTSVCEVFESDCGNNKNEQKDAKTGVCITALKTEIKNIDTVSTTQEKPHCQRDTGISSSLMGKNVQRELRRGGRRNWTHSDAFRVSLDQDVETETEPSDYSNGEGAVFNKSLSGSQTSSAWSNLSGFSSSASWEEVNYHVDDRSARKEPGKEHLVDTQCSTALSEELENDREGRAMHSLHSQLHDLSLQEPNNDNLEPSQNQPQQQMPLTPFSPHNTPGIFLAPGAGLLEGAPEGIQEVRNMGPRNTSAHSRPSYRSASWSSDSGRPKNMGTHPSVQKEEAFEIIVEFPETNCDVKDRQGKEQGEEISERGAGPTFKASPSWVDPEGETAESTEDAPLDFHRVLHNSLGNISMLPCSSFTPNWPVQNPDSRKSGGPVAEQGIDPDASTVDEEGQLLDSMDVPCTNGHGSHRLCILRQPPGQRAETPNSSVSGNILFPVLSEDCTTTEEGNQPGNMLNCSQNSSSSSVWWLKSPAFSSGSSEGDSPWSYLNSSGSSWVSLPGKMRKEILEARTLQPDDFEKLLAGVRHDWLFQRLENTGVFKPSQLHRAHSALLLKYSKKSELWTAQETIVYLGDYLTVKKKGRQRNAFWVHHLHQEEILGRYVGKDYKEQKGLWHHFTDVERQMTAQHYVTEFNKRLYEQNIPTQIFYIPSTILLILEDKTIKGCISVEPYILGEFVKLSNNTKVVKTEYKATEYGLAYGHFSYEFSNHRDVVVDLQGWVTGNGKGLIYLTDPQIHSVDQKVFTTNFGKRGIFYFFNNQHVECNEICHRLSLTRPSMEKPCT
Description: To test whether HBP, HMP-1bP, and H1b-ADP were able to induce cytokine expression in an ALPK1 dependent manner, we used an ALPK1-directed small interfering RNA (siRNA) to silence ALPK1 expression in HEK293 cells. Cells were plated (1×10^4 cells/well) into 96-well plates and transfected with either control siRNA or ALPK1-directed siRNA according to the manufacturer's protocols (Lipofectamine™ RNAiMax™, Invitrogen 13778075). Following 2 days of culture, either (1) HBP (500 uM, 100 uM, 20 uM, FIG. 2A-2B) (2) HMP-1bP (500 uM, 100 uM, FIG. 3A-3B), (3) H1b-ADP (100 nM, 20 nM, 4 nM, 0.8 nM, FIG. 4A-4B) was added to culture medium and cells were harvested 4 hours later.

ALPK1 [2] = target: T1, ALPK1; experiment: In vitro kinase assay of ALPK1-dependent TIFA phosphorylation; format: biochemical
Description: We performed an in vitro kinase assay with H1b-ADP and H1b-ADP-6L along with ALPK1 protein (2 nM), and TIFA protein (1.6 uM) in kinase buffer containing 50 uM ATP. TIFA phosphorylation was analyzed by denaturing gel electrophoresis followed by western blotting using an anti-phosphothreonine antibody. H1b-ADP or H1b-ADP-6L was added at 2 nM, 0.4 nM, 80 pM, 16 pM, and 3 pM.
To test this, we performed an in vitro kinase reaction for ALPK1-dependent TIFA phosphorylation in the presence of either HBP or HIdA purified from E. coli containing inactivated HIdE, or in the presence of HBP and HIdA purified from the same HIdE wild-type E. coli used in the previous experiments. Phosphorylated TIFA (three concentrations, 1%, 0.2% and […]) was detected as described above by denaturing gel electrophoresis followed by Western analysis.

[3] = 4 hours, control vs ALPK1-directed siRNA

Nc1ncnc2c1ncn2[C@@H]1O[C@H](COP(=O)(O)OP(=O)(O)O[C@@H]2O[C@H]([C@H](O)CO)[C@@H](O)[C@H](O)[C@@H]2O)[C@@H](O)[C@H]1O [Compound H1b-ADP, D-glycero-D-manno-heptose-1β-ADP]
tumor growth (CT26 cells; Example 7: H1b-ADP 6.2 μg intratumoral, RMP1-14 10 mg/kg intraperitoneal): markedly suppressed tumor growth
tumor growth (CT26 cells; intratumoral, days 6, 8, 10, 12, 14, HMP-1bP 580 ug, H1b-ADP 1.2 ug): reduced tumor growth
IL-8 mRNA expression (ALPK1 [1]; [3]): increased in an ALPK1-dependent manner
TNFα mRNA expression (ALPK1 [1]; [3]): increased in an ALPK1-dependent manner
concentration at which IL-8 and TNFα mRNA expression were induced (ALPK1 [1]; FIG. 5): 10 nM
TIFA phosphorylation (ALPK1-dependent signaling) (ALPK1 [2]; ALPK1 2 nM, TIFA 1.6 uM, 50 uM ATP, 2 nM to 3 pM): activated ALPK1-dependent signaling
phosphorylation of the ALPK1 substrate TIFA (ALPK1 [2]; FIG. 7, chemically-synthesized compounds): TIFA is phosphorylated only in the presence of H1b-ADP
